{"source": "paper PMC12455637", "about": "“Functionalizing Nisin with a Sugar Moiety Improves Its Solubility and Results in an Altered Antibacterial Spectrum and Mode of Action” (ACS Synthetic Biology, 2025)", "key": {"E. faecium [1]": {"tested_on": "E. faecium", "assay_type": "cell-based, Enterococcus faecium", "conditions": "for decrease in zone of inhibition (activity) on Hpg labeling: 30 μL of 1 mg/mL in 8 mm wells, zone area minus well area, 3 experiments", "procedure": "2 Production of single-Met containing nisin and nisin variants labeled with Met, Hpg or Hpg–Glc and their antibacterial activity against E. faecium strain. (a) Quantification of fully modified nisin variants labeled with Met or Hpg using HPLC as per Schmitt et al. (b) Evaluation of the antimicrobial efficacy of nisin and its variants against E. faecium through agar well diffusion assay. Each trial was repeated 3 times. The relative activity was determined by measuring inhibition zone diameters in millimeters, calculated as the area of the zone (πr ^2) minus the area of the well (πr ^2) in millimeters.\nAn overnight culture was added at a concentration of 0.1% (v/v) to molten GM17 agar (for E. faecium and E. faecalis) or LB agar (for S. aureus and B. cereus) at 45 °C, and then 30 mL of this mixture was poured onto a plate. After the agar solidified, wells of 8 mm were created by punching in the agar and filled with 30 μL of a 1 mg/mL lantibiotic solution. If needed, lantibiotics were activated by adding 3 μL of 1 mg/mL NisP directly to the well. The quantity of nisin was determined using HPLC as previously outlined. The agar plate was then incubated at 37 °C overnight, and the zones of inhibition were measured. The presented data results from three independent experiments. Zone diameters were measured in millimeters and recorded as the area of the zone (πr ^2) minus the area of the well (πr ^2) in millimeters."}, "[2]": {"tested_on": "various Gram-positive bacteria", "conditions": "ref citation numbers not given; cited from earlier work", "text": "Recently, we introduced the Met analog Aha at position 17 and used click chemistry to ..."}, "E. faecium [3]": {"tested_on": "E. faecium", "assay": "Time-kill assay", "assay_type": "cell-based, Enterococcus faecium", "conditions": "5-fold MIC against E. faecium", "procedure": "The antimicrobial effectiveness of nisin, nisin(1–22), and nisin(M21V)–Gal was assessed using a method previously described by Guo et al. , In summary, an overnight culture of E. faecium was diluted 50 times in GM17 medium and cultured at 37 °C. The bacteria were grown until reaching an optical density at 600 nm (OD600) of 0.5, and then the cell concentration was adjusted to 5 × 10^5 colony-forming units per milliliter (CFU/mL). Following this, the bacteria were exposed to a 5-fold MIC of each peptide. An untreated cell suspension was used as a control. At specific time intervals, 50 μL samples were taken, and both undiluted and 10-fold serially diluted suspensions were plated on GM17 agar. The plates were then incubated overnight at 37 °C, and the resulting colonies were counted and expressed as CFU/mL. Each experiment was conducted in triplicate."}, "[4]": {"conditions": "compared to the same peptide labeled with Met"}}, "note": "Square brackets hold non-standard residues; d marks the D form. Primed or numbered codes have the meaning given here. Side chains are listed from the residue outwards. Ends that are not written are not given here. triazole = not defined here; Hpg′ = not defined here"}
{"molecule": "C#CCC[C@H](NC(=O)[C@@H]1CS[C@@H](C)[C@@H](NC(=O)[C@@H](NC(=O)[C@@H]2CS[C@@H](C)[C@@H](NC(=O)[C@@H]3CSC[C@@H](NC(=O)/C(=C/C)NC(=O)[C@@H](N)[C@@H](C)CC)C(=O)N[C@@H]([C@@H](C)CC)C(=O)NC(=C)C(=O)N[C@@H](CC(C)C)C(=O)N3)C(=O)N[C@@H](C)C(=O)NCC(=O)N2)[C@@H](C)CC)C(=O)NCC(=O)N[C@@H](C(C)C)C(=O)N[C@@H]([C@@H](C)CC)C(=O)N[C@@H]([C@@H](C)CC)C(=O)N/C(=C\\C)C(=O)N1)C(=O)N[C@@H]1CSC[C@@H](C(=O)N[C@@H](CCCCN)C(=O)O)NC(=O)CNC(=O)[C@H](CC(N)=O)NC1=O", "note": "[rombocin(M17I)(Hpg)]", "values": [{"measurement": "decrease in zone of inhibition (activity) on Hpg labeling", "setting": "E. faecium [1]; [4]", "value": 49, "unit": "%"}]}
{"molecule": "C#CCC[C@@H]1NC(=O)[C@H]([C@@H](C)CC)NC(=O)[C@H](C(C)C)NC(=O)CNC(=O)[C@H](NC(=O)[C@@H](NC(=O)[C@@H]2CS[C@@H](C)[C@@H](NC(=O)[C@@H]3CSC[C@@H](NC(=O)/C(=C/C)NC(=O)[C@@H](N)[C@@H](C)CC)C(=O)N[C@@H]([C@@H](C)CC)C(=O)NC(=C)C(=O)N[C@@H](CC(C)C)C(=O)N3)C(=O)N[C@@H](C)C(=O)NCC(=O)N2)[C@@H](C)CC)[C@H](C)SC[C@@H](C(=O)N[C@H](C(=O)N[C@@H]2CSC[C@@H](C(=O)N[C@@H](CCCCN)C(=O)O)NC(=O)CNC(=O)[C@H](CC(N)=O)NC2=O)C(C)C)NC(=O)/C(=C/C)NC1=O", "note": "[rombocin(M20V)(Hpg)]", "values": [{"measurement": "decrease in zone of inhibition (activity) on Hpg labeling", "setting": "E. faecium [1]; [4]", "value": 13, "unit": "%"}]}
{"molecule": "M17W: literature nisin mutant with M17W mutation (ITSISLCTPGCKTGALWGCNMKTATCHCSIHVSK; cysteine pairing not given here; also: lantibiotic nisin-A; UniProt P13068 24-57, looked up, variant M17W) [reference compound]", "values": [{"measurement": "influence of M17 mutation on antimicrobial activity", "setting": "[2]", "value": "reduced activity"}]}
{"molecule": "nisin(1–22): truncated variant of nisin, bacteriostatic control that only binds lipid II (ITSISLCTPGCKTGALMGCNMK; cysteine pairing not given here; also: lantibiotic nisin-A; UniProt P13068 24-45, looked up, fragment) [reference compound]", "values": [{"measurement": "bacteriostatic or bactericidal nature", "setting": "E. faecium [3]", "value": "bacteriostatic effect"}]}
{"molecule": "nisin(M17I): single-Met nisin mutant M17I, labeled with Met (ITSISLCTPGCKTGALIGCNMKTATCHCSIHVSK; not fully specified (some residues, bridges); cysteine pairing not given here; also: lantibiotic nisin-A, labeled with Met; UniProt P13068 24-57, looked up, variant M17I)", "values": [{"measurement": "influence of M17 mutation on antimicrobial activity", "setting": "[2]", "value": "reduced activity"}]}
{"molecule": "nisin(M17I)–Glc (ITSISLCTPGCKTGALIGCN[Hpg′]([triazole-2‑deoxy‑D‑glucose])KTATCHCSIHVSK; not fully specified (some residues, bridges); reading uncertain; also: nisin-A lantibiotic thioether rings and dehydro residues, not placed; UniProt P13068 24-57, looked up, variant M17I)", "values": [{"measurement": "decrease of activity after glucose attachment", "setting": "E. faecium [1]; compared to the Hpg-labeled peptide, agar well diffusion", "value": 15, "unit": "%"}, {"measurement": "decrease of activity of the glucose conjugate", "setting": "E. faecium [1]; compared to the same peptide labeled with Met, agar well diffusion", "value": 41, "unit": "%"}]}
{"molecule": "nisin(M21V): single-Met nisin mutant M21V, labeled with Met (ITSISLCTPGCKTGALMGCNVKTATCHCSIHVSK; not fully specified (some residues, bridges); cysteine pairing not given here; also: lantibiotic nisin-A, labeled with Met; UniProt P13068 24-57, looked up, variant M21V)", "values": [{"measurement": "antibacterial activity in words", "setting": "E. faecium [1]; agar well diffusion, 30 μL of 1 mg/mL", "value": "highest antibacterial activity"}]}
